{"source": "patent US20220265176A1", "about": "“A NOVEL, ORGAN-ON-A-CHIP DEVICE FOR ASSESSING TRANS-EPITHELIAL TRANSPORT, AND USES THEREOF” (The Johns Hopkins University, priority 2019, published 2022)", "key": {"WTc cells": {"system": "WTc cells", "experiment": "MFKP pump performance curve, wild type cortex (WTc) primary kidney cells", "type": "cell-based, human", "from_the_text": "(§1) A micro-fluidic device to measure transepithelial fluid absorption activities of the kidney epithelium while allowing for cell imaging andvsimultaneous control of fluid pressure, shear stress (FSS), and media chemical composition is described herein (see FIG. 2A-2F). The device measures fluidic flux across the epithelium as a function of apical and basal pressures using a microcapillary (MC) connected to port 2 or 3 (FIG. 2C). The MC measures both the trans-epithelial fluid flux and the hydraulic pressure (FIG. 2C, 2F). […] Calibration experiments are performed to obtain capillary action contribution from the MC to the basal pressure and the static pressure profiles of each device for the shear flow condition considered.\n(§2) Next, it was considered whether the device is useful for understanding fluidic pumping by primary human normal kidney and ADPKD cystic cells. […] The barrier function of the epithelia was again assessed using dye permeation assay (FIG. 15A-15I).\n(§3) Port 1 is closed. (4B) Schematic of the setup, which allows measurement of trans-epithelial fluid flux from the basal to apical chamber. (4C) Schematic representation of a cystic kidney derived from ADPKD patients. (4D) Schematic representation of a kidney derived from normal human patients. (4E) The MC is connected to port 3 in the MFKP. Port 1 is closed. (4F) This setup enables measurement of trans-epithelial fluid flux from apical to basal chamber."}, "WTm cells": {"system": "WTm cells", "experiment": "MFKP pump performance curve, wild type medulla (WTm) primary kidney cells", "type": "cell-based, human", "from_the_text": "as §1, §2, §3"}, "cysts": {"system": "cysts", "settings": "mouse models of ADPKD; AVP treatment; reference [15]; cited from earlier work"}, "MDCK-II epithelium": {"system": "MDCK-II epithelium", "experiment": "Micro-fluidic Kidney Pump (MFKP) pump performance curve, MDCK-II epithelium", "type": "cell-based", "from_the_text": "as §1"}, "ADPKD cystic cells": {"system": "ADPKD cystic cells", "experiment": "MFKP pump performance curve, ADPKD cystic cells", "type": "cell-based, human", "from_the_text": "as §1, §2\nPort 1 is closed. (4B) Schematic of the setup, which allows measurement of trans-epithelial fluid flux from the basal to apical chamber. (4C) Schematic representation of a cystic kidney derived from ADPKD patients."}, "V2R": {"molecular_target": "V2R (Homo sapiens, UniProt P30518)", "sequence (P30518 whole entry, species assumed)": "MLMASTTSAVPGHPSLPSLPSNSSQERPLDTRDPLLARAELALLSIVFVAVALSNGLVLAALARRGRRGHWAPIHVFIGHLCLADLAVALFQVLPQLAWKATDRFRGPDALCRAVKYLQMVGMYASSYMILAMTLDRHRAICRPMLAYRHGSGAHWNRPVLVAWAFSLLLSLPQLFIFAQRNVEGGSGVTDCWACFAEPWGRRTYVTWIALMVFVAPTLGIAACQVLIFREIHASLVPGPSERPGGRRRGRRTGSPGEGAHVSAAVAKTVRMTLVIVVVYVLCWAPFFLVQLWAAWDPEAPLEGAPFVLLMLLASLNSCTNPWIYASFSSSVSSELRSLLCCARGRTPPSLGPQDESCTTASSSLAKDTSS", "settings": "reference [18]; cited from earlier work"}, "ADPKD kidney": {"system": "ADPKD kidney", "settings": "reference [16]; cited from earlier work"}, "[1]": {"settings": "mature ADPKD epithelium, 1 nM TVP on basolateral side for 1 hour, vs control"}}, "data": [{"smiles": "C[C@@H]1O[C@@H](O[C@H]2C[C@@H](O)[C@]3(CO)[C@H]4[C@H](O)C[C@]5(C)[C@@H](C6=CC(=O)OC6)CC[C@]5(O)[C@@H]4CC[C@]3(O)C2)[C@H](O)[C@H](O)[C@H]1O", "note": "[Ouabain]", "values": [{"measurement": "equilibrium fluid flux (J0)", "setting": "WTc cells; after Ouabain induced inhibition of NKA (control 4.3)", "result": 1.7, "unit": "μL/min/cm^2"}, {"measurement": "stall pressure ΔP*", "setting": "WTc cells; after Ouabain induced inhibition of NKA (control 157 Pa)", "result": 34, "unit": "Pa"}, {"measurement": "J0", "setting": "WTm cells; overnight incubation with 274 μM Ouabain (control 4.3)", "result": 1.0, "unit": "μL/min/cm2"}, {"measurement": "ΔP*", "setting": "WTm cells; overnight incubation with 274 μM Ouabain (control 56 Pa)", "result": 42, "unit": "Pa"}]}, {"smiles": "NC(=O)CC[C@@H]1NC(=O)[C@H](Cc2ccccc2)NC(=O)[C@H](Cc2ccc(O)cc2)NC(=O)[C@@H](N)CSSC[C@@H](C(=O)N2CCC[C@H]2C(=O)N[C@@H](CCCN=C(N)N)C(=O)NCC(N)=O)NC(=O)[C@H](CC(N)=O)NC1=O", "note": "[AVP, arginine vasopressin]", "values": [{"measurement": "J0 and ΔP*", "setting": "WTc cells; basolateral treatment of AVP", "result": "variable response"}, {"measurement": "cyst growth", "setting": "cysts", "result": "grow bigger"}, {"measurement": "pump performance curve (PPC)", "setting": "MDCK-II epithelium; MDCK-II epithelium, chemical perturbation (addition of AVP)", "result": "changes substantially"}, {"measurement": "stall pressure ΔP*", "setting": "ADPKD cystic cells; ADPKD cells, basolateral treatment of AVP", "result": "−300", "unit": "Pa"}, {"measurement": "basal-to-apical fluid pumping", "setting": "ADPKD cystic cells; ADPKD epithelium, basolateral treatment of AVP", "result": "massive surge"}, {"measurement": "J0 and ΔP*", "setting": "WTm cells; basolateral treatment of AVP", "result": "variable response"}]}, {"smiles": "Cc1ccccc1C(=O)Nc1ccc(C(=O)N2CCCC(O)c3cc(Cl)ccc32)c(C)c1", "note": "(stereo not drawn) [Tolvaptan]", "values": [{"measurement": "cAMP levels", "setting": "V2R", "result": "decrease"}, {"measurement": "total kidney volume", "setting": "ADPKD kidney", "result": "decreased"}, {"measurement": "J0 (fluid flux at zero pressure gradient)", "setting": "ADPKD cystic cells; [1]", "result": "decreased"}, {"measurement": "stall pressure ΔP*", "setting": "ADPKD cystic cells; [1]", "result": "decreased"}]}, {"smiles": "C[C@@H](N)[C@H]1CC[C@H](C(=O)Nc2ccncc2)CC1", "note": "[Y-27367]", "values": [{"measurement": "fluid flux", "setting": "MDCK-II epithelium; MDCK-II epithelium in MFKP, addition of Y-27367", "result": "did not influence fluid flux significantly"}]}]}
